Measured values as given in ChEMBL document CHEMBL1140184, “Synthesis and structure-activity relationship studies of highly potent novel oxazolidinone antibacterials” (2008).
In brackets after ≈: the same amount, converted by molar mass.

Experiments:
Type in all cases: functional
Streptococcus pneumoniae [1] = test: Antibacterial activity against penicillin-resistant Streptococcus pneumoniae PR44 by agar dilution method
Staphylococcus aureus [2] = test: Antibacterial activity against methicillin-sensitive Staphylococcus aureus Smith by agar dilution method
Haemophilus influenzae = test: Antibacterial activity against Haemophilus influenzae IID983 by agar dilution method
Enterococcus faecium = test: Antibacterial activity against vancomycin-resistant Enterococcus faecium A2280 by agar dilution method
Streptococcus pneumoniae [3] = test: Antibacterial activity against penicillin-susceptible Streptococcus pneumoniae IID553 by agar dilution method
Staphylococcus aureus [4] = test: Antibacterial activity against methicillin-resistant Staphylococcus aureus TK7 by agar dilution method

SMILES	MIC (Streptococcus pneumoniae [1])	MIC (Staphylococcus aureus [2])	MIC (Haemophilus influenzae)	MIC (Enterococcus faecium)	MIC (Streptococcus pneumoniae [3])	MIC (Staphylococcus aureus [4])
N#C[C@]1(c2ccc(-c3ccc(N4C[C@H](Cn5ccnn5)OC4=O)cc3)cn2)[C@@H]2C[S+]([O-])C[C@@H]21 (stereo partly specified)	0.125 µg/mL (≈ 0.271 µM)	0.125 µg/mL (≈ 0.271 µM)	8 µg/mL (≈ 17.4 µM)	0.25 µg/mL (≈ 0.543 µM)	0.125 µg/mL (≈ 0.271 µM)	0.125 µg/mL (≈ 0.271 µM)
N#CN1C[C@@H]2[C@H](C1)[C@@]2(C#N)c1ccc(-c2ccc(N3C[C@H](Cn4ccnn4)OC3=O)cc2F)cn1	0.06 µg/mL (≈ 0.128 µM)	0.06 µg/mL (≈ 0.128 µM)	2 µg/mL (≈ 4.25 µM)	0.06 µg/mL (≈ 0.128 µM)	0.06 µg/mL (≈ 0.128 µM)	0.06 µg/mL (≈ 0.128 µM)
N#C[C@]1(c2ccc(-c3ccc(N4C[C@H](Cn5ccnn5)OC4=O)cc3F)cn2)[C@@H]2CSC[C@@H]21	0.06 µg/mL (≈ 0.13 µM)	0.06 µg/mL (≈ 0.13 µM)	> 2 µg/mL	0.25 µg/mL (≈ 0.541 µM)	0.125 µg/mL (≈ 0.27 µM)	0.06 µg/mL (≈ 0.13 µM)
N#C[C@]1(c2ccc(-c3c(F)cc(N4C[C@H](Cn5ccnn5)OC4=O)cc3F)cn2)[C@@H]2COC[C@@H]21	0.125 µg/mL (≈ 0.269 µM)	0.06 µg/mL (≈ 0.129 µM)	4 µg/mL (≈ 8.61 µM)	0.25 µg/mL (≈ 0.538 µM)	0.25 µg/mL (≈ 0.538 µM)	0.06 µg/mL (≈ 0.129 µM)
N#C[C@]1(c2ccc(-c3ccc(N4C[C@H](Cn5ccnn5)OC4=O)cc3F)cn2)[C@@H]2CN(C(=O)CO)C[C@@H]21	0.06 µg/mL (≈ 0.119 µM)	0.06 µg/mL (≈ 0.119 µM)	4 µg/mL (≈ 7.94 µM)	0.125 µg/mL (≈ 0.248 µM)	0.06 µg/mL (≈ 0.119 µM)	0.06 µg/mL (≈ 0.119 µM)
N#C[C@]1(c2ccc(-c3ccc(N4C[C@H](COc5ccon5)OC4=O)cc3F)cn2)[C@@H]2CNC[C@@H]21	0.06 µg/mL (≈ 0.13 µM)	0.06 µg/mL (≈ 0.13 µM)	4 µg/mL (≈ 8.67 µM)	0.125 µg/mL (≈ 0.271 µM)	0.125 µg/mL (≈ 0.271 µM)	0.06 µg/mL (≈ 0.13 µM)
CC(=S)NC[C@H]1CN(c2ccc(-c3ccc([C@@]4(C#N)[C@@H]5CNC[C@@H]54)nc3)c(F)c2)C(=O)O1	0.03 µg/mL (≈ 0.0664 µM)	0.06 µg/mL (≈ 0.133 µM)	2 µg/mL (≈ 4.43 µM)	0.06 µg/mL (≈ 0.133 µM)	0.06 µg/mL (≈ 0.133 µM)	0.03 µg/mL (≈ 0.0664 µM)
COC(=O)NC[C@H]1CN(c2ccc(-c3ccc([C@@]4(C#N)[C@@H]5CNC[C@@H]54)nc3)c(F)c2)C(=O)O1	0.125 µg/mL (≈ 0.277 µM)	0.125 µg/mL (≈ 0.277 µM)	4 µg/mL (≈ 8.86 µM)	0.125 µg/mL (≈ 0.277 µM)	0.125 µg/mL (≈ 0.277 µM)	0.125 µg/mL (≈ 0.277 µM)
NC[C@]1(c2ccc(-c3ccc(N4C[C@H](Cn5ccnn5)OC4=O)cc3F)cn2)[C@@H]2CNC[C@@H]21	8 µg/mL (≈ 17.8 µM)	4 µg/mL (≈ 8.9 µM)	128 µg/mL (≈ 285 µM)	16 µg/mL (≈ 35.6 µM)	4 µg/mL (≈ 8.9 µM)	4 µg/mL (≈ 8.9 µM)
N#C[C@]1(c2ccc(-c3ccc(N4C[C@H](Cn5ccnn5)OC4=O)cc3)cn2)[C@@H]2COC[C@@H]21	0.125 µg/mL (≈ 0.292 µM)	0.06 µg/mL (≈ 0.14 µM)	4 µg/mL (≈ 9.34 µM)	0.25 µg/mL (≈ 0.583 µM)	0.125 µg/mL (≈ 0.292 µM)	0.06 µg/mL (≈ 0.14 µM)
CN1C[C@@H]2[C@H](C1)[C@@]2(C#N)c1ccc(-c2ccc(N3C[C@H](Cn4ccnn4)OC3=O)cc2F)cn1	0.06 µg/mL (≈ 0.131 µM)	0.06 µg/mL (≈ 0.131 µM)	4 µg/mL (≈ 8.71 µM)	0.25 µg/mL (≈ 0.544 µM)	0.06 µg/mL (≈ 0.131 µM)	0.06 µg/mL (≈ 0.131 µM)
N#C[C@]1(c2ccc(-c3ccc(N4C[C@H](Cn5ccnn5)OC4=O)cc3F)cn2)[C@@H]2C[S+]([O-])C[C@@H]21 (stereo partly specified)	0.06 µg/mL (≈ 0.125 µM)	0.06 µg/mL (≈ 0.125 µM)	4 µg/mL (≈ 8.36 µM)	0.125 µg/mL (≈ 0.261 µM)	0.06 µg/mL (≈ 0.125 µM)	0.06 µg/mL (≈ 0.125 µM)
N#C[C@]1(c2ccc(-c3ccc(N4C[C@H](Cn5ccnn5)OC4=O)cc3)cn2)[C@@H]2CSC[C@@H]21	0.06 µg/mL (≈ 0.135 µM)	0.06 µg/mL (≈ 0.135 µM)	8 µg/mL (≈ 18 µM)	0.25 µg/mL (≈ 0.562 µM)	0.125 µg/mL (≈ 0.281 µM)	0.06 µg/mL (≈ 0.135 µM)
N#C[C@]1(c2ccc(-c3c(F)cc(N4C[C@H](Cn5ccnn5)OC4=O)cc3F)cn2)[C@@H]2CNC[C@@H]21	0.125 µg/mL (≈ 0.27 µM)	0.125 µg/mL (≈ 0.27 µM)	4 µg/mL (≈ 8.63 µM)	0.25 µg/mL (≈ 0.539 µM)	0.125 µg/mL (≈ 0.27 µM)	0.125 µg/mL (≈ 0.27 µM)
N#C[C@]1(c2ccc(-c3ccc(N4C[C@H](Cn5ccnn5)OC4=O)cc3F)cc2)[C@@H]2CNC[C@@H]21	0.06 µg/mL (≈ 0.135 µM)	0.125 µg/mL (≈ 0.281 µM)	4 µg/mL (≈ 9 µM)	0.25 µg/mL (≈ 0.562 µM)	0.125 µg/mL (≈ 0.281 µM)	0.06 µg/mL (≈ 0.135 µM)
N#C[C@]1(c2ccc(-c3ccc(N4C[C@H](Cn5ccnn5)OC4=O)cc3F)cn2)[C@@H]2COC[C@@H]21	0.06 µg/mL (≈ 0.134 µM)	0.06 µg/mL (≈ 0.134 µM)	2 µg/mL (≈ 4.48 µM)	0.25 µg/mL (≈ 0.56 µM)	0.06 µg/mL (≈ 0.134 µM)	0.06 µg/mL (≈ 0.134 µM)
N#C[C@]1(c2ccc(-c3ccc(N4C[C@H](Cn5ccnn5)OC4=O)cc3)cn2)[C@@H]2CS(=O)(=O)C[C@@H]21	0.06 µg/mL (≈ 0.126 µM)	0.06 µg/mL (≈ 0.126 µM)	4 µg/mL (≈ 8.39 µM)	0.125 µg/mL (≈ 0.262 µM)	0.06 µg/mL (≈ 0.126 µM)	0.06 µg/mL (≈ 0.126 µM)
CC(=O)NC[C@H]1CN(c2ccc(N3CCOCC3)c(F)c2)C(=O)O1 [LINEZOLID]		1 µg/mL (≈ 2.96 µM)	16 µg/mL (≈ 47.4 µM)	2 µg/mL (≈ 5.93 µM)		1 µg/mL (≈ 2.96 µM)
